Measured values reported in US11912701B2, “Protein kinase inhibitors for promoting liver regeneration or reducing or preventing hepatocyte death” (HEPAREGENIX GMBH, priority 2018, dated 2024).

Columns and labels:
Type in all cases: biochemical
[1] = target: T1, MKK7 (Homo sapiens, UniProt O14733); experiment: 33PanQinase enzyme assay, MKK7; parameters: purchased ProQinase GmbH, Freiburg, Germany (33PanQinase Assay Service); settings: ratio IC50(MKK7)/IC50(MKK4)
T1 sequence (O14733 1-419): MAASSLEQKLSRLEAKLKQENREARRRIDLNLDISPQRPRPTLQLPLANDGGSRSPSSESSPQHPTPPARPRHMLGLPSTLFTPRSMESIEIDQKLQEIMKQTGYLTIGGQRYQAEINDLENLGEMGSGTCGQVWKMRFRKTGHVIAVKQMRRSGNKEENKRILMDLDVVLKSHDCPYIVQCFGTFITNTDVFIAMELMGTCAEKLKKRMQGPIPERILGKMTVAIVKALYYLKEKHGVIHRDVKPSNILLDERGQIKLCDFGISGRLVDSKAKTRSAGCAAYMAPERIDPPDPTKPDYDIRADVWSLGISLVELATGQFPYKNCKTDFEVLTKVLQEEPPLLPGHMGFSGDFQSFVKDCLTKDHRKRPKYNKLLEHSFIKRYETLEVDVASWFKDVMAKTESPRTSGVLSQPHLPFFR
How it was run: (§1)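 Radiometric kinase reactions with ATP, test compound in DMSO and enzyme/substrate mix were incubated 60 min at 30 °C, stopped with 2% H3PO4 and washed; incorporated 33Pi was counted by scintillation. Single-concentration data are given as % residual activity; IC50 values come from least-squares curve fits.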

[2] = target: T2, BRaf (Homo sapiens, UniProt P15056); experiment: 33PanQinase enzyme assay, BRaf; settings: ratio IC50(BRaf)/IC50(MKK4)
T2 construct: purchased ProQinase GmbH, Freiburg, Germany (33PanQinase Assay Service)
How it was run: as §1

[3] = target: JNK1 (Homo sapiens, UniProt P45983); experiment: 33PanQinase enzyme assay, JNK1; parameters: purchased ProQinase GmbH, Freiburg, Germany (33PanQinase Assay Service); settings: ratio IC50(JNK1)/IC50(MKK4)
How it was run: as §1

[4] = target: T3, MKK4 (Homo sapiens, UniProt P45985); experiment: 33PanQinase enzyme assay, MKK4; settings: assay 'IC50'; for IC50: read-out: Potency MKK4 (IC50)
T3 construct: purchased ProQinase GmbH, Freiburg, Germany (33PanQinase Assay Service)
T3 sequence (P45985 1-399): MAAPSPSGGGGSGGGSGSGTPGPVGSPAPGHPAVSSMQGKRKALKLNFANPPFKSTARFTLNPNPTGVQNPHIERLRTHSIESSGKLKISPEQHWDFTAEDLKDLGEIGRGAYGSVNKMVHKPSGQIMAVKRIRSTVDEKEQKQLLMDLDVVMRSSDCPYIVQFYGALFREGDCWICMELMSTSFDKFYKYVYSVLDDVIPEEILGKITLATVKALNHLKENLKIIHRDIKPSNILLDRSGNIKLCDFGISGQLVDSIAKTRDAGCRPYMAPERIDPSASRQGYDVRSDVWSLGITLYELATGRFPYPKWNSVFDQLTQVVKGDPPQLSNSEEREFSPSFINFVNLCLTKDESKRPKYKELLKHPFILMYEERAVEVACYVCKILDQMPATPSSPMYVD
How it was run: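 Radiometric 33PanQinase assay: kinase, substrate, ATP and compound in standard buffer, 60 min at 30 °C; 33Pi incorporation read by scintillation counting.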

Chain of JNK1 (P45983 whole entry): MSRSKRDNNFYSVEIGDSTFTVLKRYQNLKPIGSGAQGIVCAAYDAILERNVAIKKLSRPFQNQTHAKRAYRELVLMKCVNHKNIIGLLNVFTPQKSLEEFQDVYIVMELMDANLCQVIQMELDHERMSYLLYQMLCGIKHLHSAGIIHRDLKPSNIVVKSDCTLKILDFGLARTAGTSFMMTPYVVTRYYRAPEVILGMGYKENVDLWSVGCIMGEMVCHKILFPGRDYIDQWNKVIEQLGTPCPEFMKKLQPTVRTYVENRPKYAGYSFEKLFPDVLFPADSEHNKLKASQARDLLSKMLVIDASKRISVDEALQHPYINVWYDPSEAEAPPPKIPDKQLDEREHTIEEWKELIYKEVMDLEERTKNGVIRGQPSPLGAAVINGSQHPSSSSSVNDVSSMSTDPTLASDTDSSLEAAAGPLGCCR
T2 sequence (P15056 whole entry, species assumed): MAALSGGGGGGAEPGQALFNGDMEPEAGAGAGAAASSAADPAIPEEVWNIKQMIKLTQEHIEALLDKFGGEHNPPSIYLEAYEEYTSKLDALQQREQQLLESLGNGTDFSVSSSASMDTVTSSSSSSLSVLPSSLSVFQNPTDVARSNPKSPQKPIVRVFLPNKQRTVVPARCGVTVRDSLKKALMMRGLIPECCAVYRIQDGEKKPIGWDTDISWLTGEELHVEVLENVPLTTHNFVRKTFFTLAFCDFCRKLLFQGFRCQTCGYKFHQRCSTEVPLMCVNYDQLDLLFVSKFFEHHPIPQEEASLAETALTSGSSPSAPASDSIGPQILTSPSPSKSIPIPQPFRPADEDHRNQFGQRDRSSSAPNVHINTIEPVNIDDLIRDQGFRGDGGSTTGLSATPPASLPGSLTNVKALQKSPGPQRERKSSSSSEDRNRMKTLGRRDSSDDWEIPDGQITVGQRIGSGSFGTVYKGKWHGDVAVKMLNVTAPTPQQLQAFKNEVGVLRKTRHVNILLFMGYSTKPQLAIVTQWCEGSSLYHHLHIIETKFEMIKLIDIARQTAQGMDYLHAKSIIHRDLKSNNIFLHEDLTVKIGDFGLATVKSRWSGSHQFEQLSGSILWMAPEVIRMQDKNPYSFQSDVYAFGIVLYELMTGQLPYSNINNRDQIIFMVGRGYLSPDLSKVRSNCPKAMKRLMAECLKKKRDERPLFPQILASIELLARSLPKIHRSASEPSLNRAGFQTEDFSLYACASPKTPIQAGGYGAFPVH

Row | Structure (SMILES) | Selectivity IVIKK7, IC50(off-target)/IC50(MKK4) [1] | Selectivity Braf, IC50(off-target)/IC50(MKK4) [2] | IC50 [4] [µM] | Potency MKK4 (IC50) [4] | Selectivity JNK1, IC50(off-target)/IC50(MKK4) [3]
1 | Nc1c(F)ccc(C(=O)c2c[nH]c3ncc(-c4ccc(Cl)cc4)cc23)c1F [Example 212, (3-amino-2,4-difluorophenyl)(5-(4-chlorophenyl)-1H-pyrrolo[2,3-b]pyridin-3-yl)methanone] | +++ (IC50(off-target)/IC50(MKK4) > 100) | + (10 ≥ IC50(off-target)/IC50(MKK4) > 3) | 0.1 to 1 | – | ◯ (3 ≥ IC50(off-target)/IC50(MKK4))
2 | CCCS(=O)(=O)Nc1c(F)ccc(C(=O)c2c[nH]c3ncc(-c4ccc(F)cc4C)cc23)c1F [Example 217, N-(2,6-difluoro-3-(5-(4-fluoro-2-methylphenyl)-1H-pyrrolo[2,3-b]pyridine-3-carbonyl)phenyl)propane-1-sulfonamide] | +++ (IC50(off-target)/IC50(MKK4) > 100) | +++ (IC50(off-target)/IC50(MKK4) > 100) | < 0.1 | – | +++ (IC50(off-target)/IC50(MKK4) > 100)
3 | CCCS(=O)(=O)Nc1c(F)ccc(C(=O)c2c[nH]c3ncc(-c4ccc(-c5nnn[nH]5)cc4)cc23)c1F [Example 219, N-(3-(5-(4-(1H-tetrazol-5-yl)phenyl)-1H-pyrrolo[2,3-b]pyridine-3-carbonyl)-2,6-difluorophenyl)propane-1-sulfonamide] | +++ (IC50(off-target)/IC50(MKK4) > 100) | +++ (IC50(off-target)/IC50(MKK4) > 100) | – | ++·+ | ++ (100 ≥ IC50(off-target)/IC50(MKK4) > 10)
4 | CCCS(=O)(=O)Nc1c(F)ccc(C(=O)c2c[nH]c3ncc(-c4ccc(S(N)(=O)=O)cc4)cc23)c1F [Example 220, 4-(3-(2,4-difluoro-3-(propylsulfonamido)benzoyl)-1H-pyrrolo[2,3-b]pyridin-5-yl)benzenesulfonamide] | +++ (IC50(off-target)/IC50(MKK4) > 100) | ++ (100 ≥ IC50(off-target)/IC50(MKK4) > 10) | < 0.1 | – | ++ (100 ≥ IC50(off-target)/IC50(MKK4) > 10)
5 | CCCS(=O)(=O)Nc1c(F)ccc(C(=O)c2c[nH]c3ncc(-c4ccc(F)cc4Cl)cc23)c1F [Example 221, N-(3-(5-(2-chloro-4-fluorophenyl)-1H-pyrrolo[2,3-b]pyridine-3-carbonyl)-2,6-difluorophenyl)propane-1-sulfonamide] | +++ (IC50(off-target)/IC50(MKK4) > 100) | +++ (IC50(off-target)/IC50(MKK4) > 100) | < 0.1 | – | ++ (100 ≥ IC50(off-target)/IC50(MKK4) > 10)
6 | CCCS(=O)(=O)Nc1c(F)ccc(C(=O)c2c[nH]c3ncc(-c4ccc(C(=O)O)cc4)cc23)c1F [Example 222, 4-(3-(2,4-difluoro-3-(propylsulfonamido)benzoyl)-1H-pyrrolo[2,3-b]pyridin-5-yl)benzoic acid] | +++ (IC50(off-target)/IC50(MKK4) > 100) | +++ (IC50(off-target)/IC50(MKK4) > 100) | < 0.1 | – | ++ (100 ≥ IC50(off-target)/IC50(MKK4) > 10)
7 | CCCS(=O)(=O)Nc1c(F)ccc(C(=O)c2c[nH]c3ncc(-c4cccc(C(=O)O)c4)cc23)c1F [Example 223, 3-(3-(2,4-difluoro-3-(propylsulfonamido)benzoyl)-1H-pyrrolo[2,3-b]pyridin-5-yl)benzoic acid] | +++ (IC50(off-target)/IC50(MKK4) > 100) | + (10 ≥ IC50(off-target)/IC50(MKK4) > 3) | < 0.1 | – | ++ (100 ≥ IC50(off-target)/IC50(MKK4) > 10)
8 | CCCS(=O)(=O)Nc1c(F)ccc(C(=O)c2c[nH]c3ncc(-c4ccccc4C(=O)O)cc23)c1F [Example 224, 2-(3-(2,4-difluoro-3-(propylsulfonamido)benzoyl)-1H-pyrrolo[2,3-b]pyridin-5-yl)benzoic acid] | ++ (100 ≥ IC50(off-target)/IC50(MKK4) > 10) | ◯ (3 ≥ IC50(off-target)/IC50(MKK4)) | 1 to 10 | – | ◯ (3 ≥ IC50(off-target)/IC50(MKK4))
9 | CCCCS(=O)(=O)Nc1c(F)ccc(C(=O)c2c[nH]c3ncc(-c4ccc(OC)cc4Cl)cc23)c1F [Example 226, N-(3-(5-(2-chloro-4-methoxyphenyl)-1H-pyrrolo[2,3-b]pyridine-3-carbonyl)-2,6-difluorophenyl)butane-1-sulfonamide] | +++ (IC50(off-target)/IC50(MKK4) > 100) | +++ (IC50(off-target)/IC50(MKK4) > 100) | < 0.1 | – | ++ (100 ≥ IC50(off-target)/IC50(MKK4) > 10)
10 | CCCCS(=O)(=O)Nc1c(F)ccc(C(=O)c2c[nH]c3ncc(-c4ccc(F)cc4C)cc23)c1F [Example 227, N-(2,6-difluoro-3-(5-(4-fluoro-2-methylphenyl)-1H-pyrrolo[2,3-b]pyridine-3-carbonyl)phenyl)butane-1-sulfonamide] | +++ (IC50(off-target)/IC50(MKK4) > 100) | +++ (IC50(off-target)/IC50(MKK4) > 100) | < 0.1 | – | +++ (IC50(off-target)/IC50(MKK4) > 100)

The next lines start with results.

Row | Selectivity IVIKK7, IC50(off-target)/IC50(MKK4) [1] | Selectivity Braf, IC50(off-target)/IC50(MKK4) [2] | IC50 [4] [µM] | Potency MKK4 (IC50) [4] | Structure (SMILES) | Selectivity JNK1, IC50(off-target)/IC50(MKK4) [3]
11 | +++ (IC50(off-target)/IC50(MKK4) > 100) | +++ (IC50(off-target)/IC50(MKK4) > 100) | < 0.1 | – | CCCS(=O)(=O)Nc1c(F)ccc(C(=O)c2c[nH]c3ncc(-c4ccccc4Cl)cc23)c1F [Example 213, N-(3-(5-(2-chlorophenyl)-1H-pyrrolo[2,3-b]pyridine-3-carbonyl)-2,6-difluorophenyl)propane-1-sulfonamide] | ++ (100 ≥ IC50(off-target)/IC50(MKK4) > 10)
12 | +++ (IC50(off-target)/IC50(MKK4) > 100) | +++ (IC50(off-target)/IC50(MKK4) > 100) | 0.1 to 1 | – | CS(=O)(=O)Nc1c(F)ccc(C(=O)c2c[nH]c3ncc(-c4cccc5ccccc45)cc23)c1F [Example 214, N-(2,6-difluoro-3-(5-(naphthalen-1-yl)-1H-pyrrolo[2,3-b]pyridine-3-carbonyl)phenyl)methanesulfonamide] | ++ (100 ≥ IC50(off-target)/IC50(MKK4) > 10)
13 | +++ (IC50(off-target)/IC50(MKK4) > 100) | ◯ (3 ≥ IC50(off-target)/IC50(MKK4)) | 0.1 to 1 | – | CCCS(=O)(=O)Nc1c(F)ccc(C(=O)c2c[nH]c3ncc(-c4ccccc4C)cc23)c1F [Example 215, N-(2,6-difluoro-3-(5-(o-tolyl)-1H-pyrrolo[2,3-b]pyridine-3-carbonyl)phenyl)propane-1-sulfonamide] | + (10 ≥ IC50(off-target)/IC50(MKK4) > 3)
14 | +++ (IC50(off-target)/IC50(MKK4) > 100) | +++ (IC50(off-target)/IC50(MKK4) > 100) | < 0.1 | – | CCCS(=O)(=O)Nc1c(F)ccc(C(=O)c2c[nH]c3ncc(-c4ccc(F)cc4)cc23)c1F [Example 216, N-(2,6-difluoro-3-(5-(4-fluorophenyl)-1H-pyrrolo[2,3-b]pyridine-3-carbonyl)phenyl)propane-1-sulfonamide] | +++ (IC50(off-target)/IC50(MKK4) > 100)
15 | +++ (IC50(off-target)/IC50(MKK4) > 100) | +++ (IC50(off-target)/IC50(MKK4) > 100) | < 0.1 | – | CCCS(=O)(=O)Nc1c(F)ccc(C(=O)c2c[nH]c3ncc(-c4ccc(Cl)cc4C)cc23)c1F [Example 225, N-(3-(5-(4-chloro-2-methylphenyl)-1H-pyrrolo[2,3-b]pyridine-3-carbonyl)-2,6-difluorophenyl)propane-1-sulfonamide] | ++ (100 ≥ IC50(off-target)/IC50(MKK4) > 10)
